Assay results: patent US20160158200A1, “Combinations of Hepatitis C Virus Inhibitors” (priority 2013, published 2016)

Test system: HCV genotype-1a variant with glutamine 30 changed to glutamate in the NS5A protein
Format: cell-based
Conditions: test compound titrated with BMS-790052 fixed at 200 nM; genotype 1a Q30E replicon
How it was run: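 Synergy was assessed by combining several fixed amounts of an NS5A-targeting compound with a titration of the second compound of interest.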

Structure (SMILES) | Fold-Synergistic 1a (Q30E)
CC1(C(=O)N[C@H](c2nc(-c3ccc(-c4ccc(-c5c[nH]c([C@@H](NC(=O)C6(C)CCC(F)(F)CC6)C(C)(C)C)n5)cc4)cc3)c[nH]2)C(C)(C)C)CCC(F)(F)CC1 [Compound P-20] | >100 fold
COC1(C(=O)N[C@H](c2nc(-c3ccc(-c4ccc(-c5c[nH]c([C@@H](NC(=O)C6(OC)CCC6)C(C)(C)C)n5)cc4)cc3)c[nH]2)C(C)(C)C)CCC1 [Compound P-21] | >100 fold
CC(C)(C)[C@H](NC(=O)c1ncccc1F)c1nc(-c2ccc(-c3ccc(-c4c[nH]c([C@@H](NC(=O)c5ncccc5F)C(C)(C)C)n4)cc3)cc2)c[nH]1 [Compound P-22] | >100 fold
CC(C)(C)[C@H](NC(=O)c1ccccc1F)c1nc(-c2ccc(-c3ccc(-c4c[nH]c([C@@H](NC(=O)c5ccccc5F)C(C)(C)C)n4)cc3)cc2)c[nH]1 [Compound P-23] | >100 fold
CC(C)(C)[C@H](NC(=O)c1ccncc1F)c1nc(-c2ccc(-c3ccc(-c4c[nH]c([C@@H](NC(=O)c5ccncc5F)C(C)(C)C)n4)cc3)cc2)c[nH]1 [Compound P-24] | >100 fold
CC(C)(C)[C@H](NC(=O)c1ccccc1OC(F)F)c1nc(-c2ccc(-c3ccc(-c4c[nH]c([C@@H](NC(=O)c5ccccc5OC(F)F)C(C)(C)C)n4)cc3)cc2)c[nH]1 [Compound P-25] | >100 fold
CCOC(C)(C)C(=O)N[C@H](c1nc(-c2ccc(-c3ccc(-c4c[nH]c([C@@H](NC(=O)C(C)(C)OCC)C(C)(C)C)n4)cc3)cc2)c[nH]1)C(C)(C)C [Compound P-26] | >100 fold
COC1(C(=O)N[C@H](c2nc(-c3ccc(-c4ccc(-c5c[nH]c([C@@H](NC(=O)C6(OC)CC6)C(C)(C)C)n5)cc4)cc3)c[nH]2)C(C)(C)C)CC1 [Compound P-27] | >100 fold
COc1ccccc1C(=O)N[C@H](c1nc(-c2ccc(-c3ccc(-c4c[nH]c([C@@H](NC(=O)c5ccccc5OC)C(C)(C)C)n4)cc3)cc2)c[nH]1)C(C)(C)C [Compound P-28] | >100 fold
CCOc1ccccc1C(=O)N[C@H](c1nc(-c2ccc(-c3ccc(-c4c[nH]c([C@@H](NC(=O)c5ccccc5OCC)C(C)(C)C)n4)cc3)cc2)c[nH]1)C(C)(C)C [Compound P-29] | >100 fold
CC(C)(C)[C@H](NC(=O)C1(C(F)(F)F)CC1)c1nc(-c2ccc(-c3ccc(-c4c[nH]c([C@@H](NC(=O)C5(C(F)(F)F)CC5)C(C)(C)C)n4)cc3)cc2)c[nH]1 [Compound P-30] | >100 fold
CC(C)(C)[C@H](NC(=O)C(C)(C)C(F)(F)F)c1nc(-c2ccc(-c3ccc(-c4c[nH]c([C@@H](NC(=O)C(C)(C)C(F)(F)F)C(C)(C)C)n4)cc3)cc2)c[nH]1 [Compound P-31] | >100 fold
CC(C)(C(=O)N[C@H](c1nc(-c2ccc(-c3ccc(-c4c[nH]c([C@@H](NC(=O)C(C)(C)C(F)F)C(C)(C)C)n4)cc3)cc2)c[nH]1)C(C)(C)C)C(F)F [Compound P-32] | >100 fold
CC(C)(C)[C@H](NC(=O)C1(O)CCC(F)(F)CC1)c1nc(-c2ccc(-c3ccc(-c4c[nH]c([C@@H](NC(=O)C5(O)CCC(F)(F)CC5)C(C)(C)C)n4)cc3)cc2)c[nH]1 [Compound P-33] | >100 fold
COC1(C(=O)N[C@H](c2nc(-c3ccc(-c4ccc(-c5c[nH]c([C@@H](NC(=O)C6(OC)CCC(F)(F)CC6)C(C)(C)C)n5)cc4)cc3)c[nH]2)C(C)(C)C)CCC(F)(F)CC1 [Compound P-34] | >100 fold
CN1CC(F)(F)C[C@H]1C(=O)N[C@H](c1nc(-c2ccc(-c3ccc(-c4c[nH]c([C@@H](NC(=O)[C@@H]5CC(F)(F)CN5C)C(C)(C)C)n4)cc3)cc2)c[nH]1)C(C)(C)C [Compound P-35] | >100 fold
CN1CCC[C@H]1C(=O)N[C@H](c1nc(-c2ccc(-c3ccc(-c4c[nH]c([C@@H](NC(=O)[C@@H]5CCCN5C)C(C)(C)C)n4)cc3)cc2)c[nH]1)C(C)(C)C [Compound P-36] | >10 fold
CC(C)(C)[C@H](NC(=O)C1(CO)CCC(F)(F)CC1)c1nc(-c2ccc(-c3ccc(-c4c[nH]c([C@@H](NC(=O)C5(CO)CCC(F)(F)CC5)C(C)(C)C)n4)cc3)cc2)c[nH]1 [Compound P-37] | >100 fold
CC(C)(C)[C@H](NC(=O)C1(CF)CCC(F)(F)CC1)c1nc(-c2ccc(-c3ccc(-c4c[nH]c([C@@H](NC(=O)C5(CF)CCC(F)(F)CC5)C(C)(C)C)n4)cc3)cc2)c[nH]1 [Compound P-38] | >100 fold
CC(C)(C)[C@H](NC(=O)C1(F)CCC(F)(F)CC1)c1nc(-c2ccc(-c3ccc(-c4c[nH]c([C@@H](NC(=O)C5(F)CCC(F)(F)CC5)C(C)(C)C)n4)cc3)cc2)c[nH]1 [Compound P-39] | >100 fold
CC(C)(C)[C@H](NC(=O)C12CCC(F)(CC1)CC2)c1nc(-c2ccc(-c3ccc(-c4c[nH]c([C@@H](NC(=O)C56CCC(F)(CC5)CC6)C(C)(C)C)n4)cc3)cc2)c[nH]1 [Compound P-40] | >100 fold
COCC1(C(=O)N[C@H](c2nc(-c3ccc(-c4ccc(-c5c[nH]c([C@@H](NC(=O)C6(COC)CCC(F)(F)CC6)C(C)(C)C)n5)cc4)cc3)c[nH]2)C(C)(C)C)CCC(F)(F)CC1 [Compound P-41] | >100 fold
CC(C)(C)[C@H](NC(=O)[C@H]1C[C@@H]2CC(F)(F)C[C@@H]2C1)c1nc(-c2ccc(-c3ccc(-c4c[nH]c([C@@H](NC(=O)[C@H]5C[C@@H]6CC(F)(F)C[C@@H]6C5)C(C)(C)C)n4)cc3)cc2)c[nH]1 [Compound P-42] | >100 fold
CC(C)(C)[C@H](NC(=O)[C@@H]1C[C@@H]2CC(F)(F)C[C@@H]2C1)c1nc(-c2ccc(-c3ccc(-c4c[nH]c([C@@H](NC(=O)[C@@H]5C[C@@H]6CC(F)(F)C[C@@H]6C5)C(C)(C)C)n4)cc3)cc2)c[nH]1 [Compound P-43] | >100 fold
CC(C)(C)[C@H](NC(=O)C1CC2CCC(C1)C2(F)F)c1nc(-c2ccc(-c3ccc(-c4c[nH]c([C@@H](NC(=O)C5CC6CCC(C5)C6(F)F)C(C)(C)C)n4)cc3)cc2)c[nH]1 (stereo partly drawn) [Compound P-44] | >100 fold
CC(C)(C)[C@H](NC(=O)C1CC2CCC(C1)C2(F)F)c1nc(-c2ccc(-c3ccc(-c4c[nH]c([C@@H](NC(=O)C5CC6CCC(C5)C6(F)F)C(C)(C)C)n4)cc3)cc2)c[nH]1 (stereo partly drawn) [Compound P-45] | >100 fold
CC(C)(C)[C@H](NC(=O)C1CC2(C1)CC(F)(F)C2)c1nc(-c2ccc(-c3ccc(-c4c[nH]c([C@@H](NC(=O)C5CC6(C5)CC(F)(F)C6)C(C)(C)C)n4)cc3)cc2)c[nH]1 [Compound P-46] | >100 fold
CC1(C(=O)N[C@H](c2nc(-c3ccc(-c4ccc(-c5c[nH]c([C@@H](NC(=O)C6(C)CCCCC6)C(C)(C)C)n5)cc4)cc3)c[nH]2)C(C)(C)C)CCCCC1 [Compound P-47] | >100 fold
CC(C)CC(=O)N[C@H](c1nc(-c2ccc(-c3ccc(-c4nc([C@@H](NC(=O)CC(C)C)C(C)C)[nH]c4Cl)cc3)cc2)c(Cl)[nH]1)C(C)C [Compound P-48] | >100 fold
COc1cccc2c(C(=O)N3[C@@H]4C[C@@H]4C[C@H]3c3ncc(-c4ccc(-c5ccc(-c6cnc([C@@H]7C[C@H]8C[C@H]8N7C(=O)c7nc(Cl)cc8c(OC)cccc78)[nH]6)cc5)cc4)[nH]3)nc(Cl)cc12 [Compound P-49] | >100 fold
